Legend:
[1] = target: T1, hFASN enzyme (full length) (Homo sapiens, UniProt P49327); assay: Fatty Acid Synthase (FASN) Inhibition Scintillation Proximity Assay; type: biochemical; conditions: for IC50: mean where tested more than once, ~ = standard error of pIC50 larger than 0.5; for inhibition at 10 µM: read-out: FASN % Effect @1E−05M
T1 construct: 10 μL hFASN enzyme (full length, 300 ng, purified in house); made in house
Outline: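 Purified full-length human FASN (300 ng) incubated 60 min at room temperature with NADPH, [3H]-acetyl-CoA and malonyl-CoA in 100 mM KH2PO4 pH 7.5, 1 mM DTT; compound at 30 μM to 0.01 μM. [3H]-palmitate captured by SPA imaging beads; IC50 from 4-parameter fit, reported as pIC50.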

[2] = target: T2, FASN Keto-reductase Domain (Homo sapiens, UniProt P49327); assay: Fatty Acid Synthase Keto-Reductase Domain (FASN KR) Inhibition; type: biochemical; conditions: mean where tested more than once; read-out: FASN K-R Domain pIC50 (converted)
T2 construct: 10 μL hFASN enzyme (full length, 300 ng, purified in house) and 360 μM NADPH; made in house
Outline: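 Full-length human FASN (300 ng) in 100 mM KH2PO4 pH 7.5 with 360 μM NADPH and 180 mM ethyl acetoacetate (stock); A340 decrease read over 20 min at room temperature.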

A2780 ovarian cells [3] = assay: A2780 Ovarian Cell Proliferation Assay in Lipid Reduced Medium, without Palmitate; type: cell-based; conditions: Homo sapiens, A2780; lipid reduced medium, without palmitate, 96 h, MTT; read-out: Proliferation A2780 w/o Palmitate pIC50 (converted)
Outline: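 A2780 cells were seeded in 10% FCS medium and switched next day to 10% lipid-reduced serum without palmitate. Compounds at 0.01–30 μM were added with 0.2% DMSO, 0.2% fatty-acid-free BSA and 0.25% ethanol final. After 96 h, MTT absorbance at 544 nm was normalized to plate controls, and IC50/pIC50 came from a 4-parameter logistic fit.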

A2780 ovarian cells [4] = assay: A2780 Ovarian Cell Proliferation Assay in Lipid Reduced Medium, with Palmitate (control); type: cell-based; conditions: Homo sapiens, A2780; lipid reduced medium, 25 μM palmitate, 96 h, MTT; read-out: Proliferation A2780 with Palmitate pIC50 (converted)
Outline: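 A2780 cells were seeded in RPMI1640 with 10% FCS, then switched next day to medium with 10% lipid-reduced serum. Compound was added with final 25 μM palmitate, 0.2% fatty-acid-free BSA and 0.2% DMSO, and incubated 96 h at 37 °C. Read-out was MTT absorbance at 544 nm; pIC50 = −log(IC50) from curve fit.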

T2 sequence (P49327 whole entry, the tested form may be a part): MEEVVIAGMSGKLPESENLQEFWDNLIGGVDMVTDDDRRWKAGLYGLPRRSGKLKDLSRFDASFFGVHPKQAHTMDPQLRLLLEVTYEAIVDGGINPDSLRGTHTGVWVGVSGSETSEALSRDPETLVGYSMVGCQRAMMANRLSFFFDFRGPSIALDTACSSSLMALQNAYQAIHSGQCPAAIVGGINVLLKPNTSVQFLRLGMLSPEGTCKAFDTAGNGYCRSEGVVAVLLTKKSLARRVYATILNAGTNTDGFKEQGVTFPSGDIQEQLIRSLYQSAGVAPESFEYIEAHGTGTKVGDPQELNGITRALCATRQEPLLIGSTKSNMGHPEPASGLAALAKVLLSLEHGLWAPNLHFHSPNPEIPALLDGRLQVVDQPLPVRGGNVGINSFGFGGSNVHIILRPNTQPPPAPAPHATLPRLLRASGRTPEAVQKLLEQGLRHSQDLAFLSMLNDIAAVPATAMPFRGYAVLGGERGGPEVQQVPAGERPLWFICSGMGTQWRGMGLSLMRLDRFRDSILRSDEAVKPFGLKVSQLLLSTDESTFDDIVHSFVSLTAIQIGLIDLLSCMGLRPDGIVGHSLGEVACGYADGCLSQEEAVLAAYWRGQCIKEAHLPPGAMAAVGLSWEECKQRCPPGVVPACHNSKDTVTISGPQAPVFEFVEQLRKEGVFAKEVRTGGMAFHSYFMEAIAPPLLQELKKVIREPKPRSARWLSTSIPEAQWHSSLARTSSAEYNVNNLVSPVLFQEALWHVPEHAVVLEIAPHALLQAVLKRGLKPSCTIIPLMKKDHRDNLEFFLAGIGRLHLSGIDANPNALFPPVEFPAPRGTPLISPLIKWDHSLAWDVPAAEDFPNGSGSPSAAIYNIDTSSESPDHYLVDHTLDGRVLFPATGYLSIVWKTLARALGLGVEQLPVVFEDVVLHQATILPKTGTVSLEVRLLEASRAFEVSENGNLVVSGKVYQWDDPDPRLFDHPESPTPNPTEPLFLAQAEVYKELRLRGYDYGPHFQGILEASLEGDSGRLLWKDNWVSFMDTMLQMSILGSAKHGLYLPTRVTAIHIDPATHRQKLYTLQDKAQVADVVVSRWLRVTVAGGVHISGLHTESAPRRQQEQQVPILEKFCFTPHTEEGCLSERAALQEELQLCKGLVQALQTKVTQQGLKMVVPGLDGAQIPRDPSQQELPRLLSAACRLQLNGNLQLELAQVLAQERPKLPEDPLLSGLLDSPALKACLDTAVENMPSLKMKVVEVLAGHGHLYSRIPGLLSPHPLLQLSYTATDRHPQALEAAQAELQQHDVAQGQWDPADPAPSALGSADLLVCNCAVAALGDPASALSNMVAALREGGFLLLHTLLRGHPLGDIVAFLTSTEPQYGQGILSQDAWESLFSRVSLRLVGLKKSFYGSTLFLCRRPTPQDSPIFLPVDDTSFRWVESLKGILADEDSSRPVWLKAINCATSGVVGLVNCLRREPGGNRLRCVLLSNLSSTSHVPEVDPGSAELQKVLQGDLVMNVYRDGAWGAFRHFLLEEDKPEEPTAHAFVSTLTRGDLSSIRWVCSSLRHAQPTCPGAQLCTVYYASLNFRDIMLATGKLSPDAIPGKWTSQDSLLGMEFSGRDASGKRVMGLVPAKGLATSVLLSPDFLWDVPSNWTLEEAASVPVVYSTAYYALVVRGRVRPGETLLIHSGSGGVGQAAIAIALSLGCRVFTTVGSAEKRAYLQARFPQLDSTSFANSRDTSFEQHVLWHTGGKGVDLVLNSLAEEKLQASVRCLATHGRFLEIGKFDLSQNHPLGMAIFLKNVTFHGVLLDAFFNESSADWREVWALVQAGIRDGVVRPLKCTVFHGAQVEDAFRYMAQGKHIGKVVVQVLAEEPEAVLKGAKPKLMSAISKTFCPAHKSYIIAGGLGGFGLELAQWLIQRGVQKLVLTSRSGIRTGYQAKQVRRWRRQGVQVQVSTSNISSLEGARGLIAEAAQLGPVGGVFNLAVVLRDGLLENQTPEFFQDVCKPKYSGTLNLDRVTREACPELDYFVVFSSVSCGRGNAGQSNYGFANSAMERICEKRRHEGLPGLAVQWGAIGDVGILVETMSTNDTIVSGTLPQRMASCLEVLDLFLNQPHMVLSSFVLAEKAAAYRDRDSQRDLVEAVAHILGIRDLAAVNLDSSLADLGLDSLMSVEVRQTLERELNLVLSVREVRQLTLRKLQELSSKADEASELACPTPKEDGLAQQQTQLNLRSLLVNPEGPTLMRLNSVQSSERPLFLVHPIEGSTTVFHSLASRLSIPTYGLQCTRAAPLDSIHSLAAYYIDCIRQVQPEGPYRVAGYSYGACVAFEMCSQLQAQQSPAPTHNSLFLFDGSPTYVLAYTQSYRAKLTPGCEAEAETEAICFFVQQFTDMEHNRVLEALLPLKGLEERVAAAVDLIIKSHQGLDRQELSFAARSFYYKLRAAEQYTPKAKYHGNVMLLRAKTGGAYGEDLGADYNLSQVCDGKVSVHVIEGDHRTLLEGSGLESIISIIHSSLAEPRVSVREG
T1 sequence (P49327 whole entry): as the sequence (P49327 whole entry, the tested form may be a part) above

SMILES	IC50 [1] [µM]	inhibition at 10 µM [1] [%]	IC50 [2] [µM]	IC50 (A2780 ovarian cells [3]) [µM]	IC50 (A2780 ovarian cells [4]) [µM]
Cc1ccc(C(=O)N2CCC(c3ccc(-c4cnn(C)c4)cc3)CC2)cc1NC(=O)c1cccs1 [Compound 130, N-(2-methyl-5-(4-(4-(1-methyl-1H-pyrazol-4-yl)phenyl)piperidine-1-carbonyl)phenyl)thiophene-2-carboxamide]	0.0479	108	0.126	~0.123	> 10
Cc1ccc(C(=O)N2CC(c3ccc(-c4ccsc4)cc3)C2)cc1NC(=O)c1ccc(NC(C)C)nc1 [Compound 26, 6-(isopropylamino)-N-(2-methyl-5-(3-(4-(thiophen-3-yl)phenyl)azetidine-1-carbonyl)phenyl)nicotinamide]	0.0324	105	0.0407	~2.29	> 10
CCN1CCC(C(=O)Nc2cc(C(=O)N3CCC(c4ccc(-c5cnn(C)c5)cc4)CC3)ccc2C)CC1 [Compound 168, 1-ethyl-N-(2-methyl-5-(4-(4-(1-methyl-1H-pyrazol-4-yl)phenyl)piperidine-1-carbonyl)phenyl)piperidine-4-carboxamide]	0.0617	113	0.126	0.0724	> 10
COc1ccc(C(=O)N2CC(c3ccc(-c4cnn(C)c4)cc3)C2)cc1NC(=O)c1ccc(N2CCOCC2)nc1 [Compound 184, N-(2-methoxy-5-(3-(4-(1-methyl-1H-pyrazol-4-yl)phenyl)azetidine-1-carbonyl)phenyl)-6-morpholinonicotinamide]	0.0363	105	0.123	0.0589	> 10
Cc1ccc(C(=O)N2CC(c3ccc(-c4ccnn4C)cc3)C2)cc1NC(=O)c1ccc(NC2CCC2)nc1 [Compound 62, 6-(cyclobutylamino)-N-(2-methyl-5-(3-(4-(1-methyl-1H-pyrazol-5-yl)phenyl)azetidine-1-carbonyl)phenyl)nicotinamide]	0.0162	103	0.0513	0.0741	4.17
CCCCCN1CC(C(=O)Nc2cc(C(=O)N3CCC(c4ccc(-c5cnn(C)c5)cc4)CC3)ccc2C)C1 [Compound 214, N-(2-methyl-5-(4-(4-(1-methyl-1H-pyrazol-4-yl)phenyl)piperidine-1-carbonyl)phenyl)-1-pentylazetidine-3-carboxamide]	0.166	107	0.282	0.275	9.55
Cc1ccc(C(=O)N2CCC(c3ccc(-c4cnn(C)c4)cc3)CC2)cc1NC(=O)C1CCN(C2CCC2)C1 (stereo not shown) [Compound 241, 1-cyclobutyl-N-(2-methyl-5-(4-(4-(1-methyl-1H-pyrazol-4-yl)phenyl)piperidine-1-carbonyl)phenyl)pyrrolidine-3-carboxamide]	0.145	101	0.468	0.148	> 10
Cc1ccc(C(=O)N2CCC(c3ccc(-c4cnn(C)c4)cc3)CC2)cc1NC(=O)c1cccnc1Cl [Compound 101, 2-Chloro-N-(2-methyl-5-(4-(4-(1-methyl-1H-pyrazol-4-yl)phenyl)piperidine-1-carbonyl)phenyl)nicotinamide]	0.0479	105	0.155	0.0912	> 10
Cc1ccc(C(=O)N2CC(c3ccc(-c4cnn(C)c4)cc3)C2)cc1NC(=O)c1ccncc1 [Compound 139, N-(2-methyl-5-(3-(4-(1-methyl-1H-pyrazol-4-yl)phenyl)azetidine-1-carbonyl)phenyl)isonicotinamide]	0.0316	101	0.0955	0.0977	> 10
CCN1CCC(C(=O)Nc2cc(C(=O)N3CCC(c4ccc(-c5cnn(C)c5)cc4)CC3)ccc2C)C1 (stereo not shown) [Compound 185, 1-ethyl-N-(2-methyl-5-(4-(4-(1-methyl-1H-pyrazol-4-yl)phenyl)piperidine-1-carbonyl)phenyl)pyrrolidine-3-carboxamide]	0.251	101	0.501	~0.501	> 10
CCC(=O)NC1CC[C@@H](C(=O)Nc2cc(C(=O)N3CC(c4ccc(-c5ccnn5C)cc4)C3)ccc2C)C1 (stereo in doubt) [Compound 64, (1R,3S)—N-(2-methyl-5-(3-(4-(1-methyl-1H-pyrazol-5-yl)phenyl)azetidine-1-carbonyl)phenyl)-3-propionamidocyclopentanecarboxamide]	0.0347	102	0.0851	~0.302	> 10
Cc1ccc(C(=O)N2CCC(c3ccc(-c4cnn(C)c4)cc3)CC2)cc1NC(=O)C1CN(C(=O)C2CC2)C1 [Compound 219, 1-(cyclopropanecarbonyl)-N-(2-methyl-5-(4-(4-(1-methyl-1H-pyrazol-4-yl)phenyl)piperidine-1-carbonyl)phenyl)azetidine-3-carboxamide]	0.0646	116	0.2	0.234	> 10
Cc1ccc(C(=O)N2CCC(c3ccc(-c4cnn(C)c4)cc3)CC2)cc1NC(=O)C1CCN(CC(C)C)C1 (stereo not shown) [Compound 188, 1-isobutyl-N-(2-methyl-5-(4-(4-(1-methyl-1H-pyrazol-4-yl)phenyl)piperidine-1-carbonyl)phenyl)pyrrolidine-3-carboxamide]	0.0617	104	0.17	0.105	> 10
CC(C)Nc1ccc(C(=O)Nc2cc(C(=O)N3CC(c4ccc(-c5cccnc5)cc4)C3)ccc2Cl)cn1 [Compound #73, N-(2-chloro-5-(3-(4-(pyridin-3-yl)phenyl)azetidine-1-carbonyl)phenyl)-6-(isopropylamino)nicotinamide]	0.0324	93	0.0851	0.148	13.5
Cc1ccc(C(=O)N2CCC(c3ccc(-c4cnn(C)c4)cc3)CC2)cc1NC(=O)c1cnc(N2CCOCC2)nc1 [Compound 152, N-(2-methyl-5-(4-(4-(1-methyl-1H-pyrazol-4-yl)phenyl)piperidine-1-carbonyl)phenyl)-2-morpholinopyrimidine-5-carboxamide]	0.0219	106	0.0174	0.0123	7.24
Cc1ccc(C(=O)N2CCC(c3ccc(-c4cnn(C)c4)cc3)C2)cc1NC(=O)c1ccc(NC(C)C)nc1 (stereo not shown) [Compound 237, 6-(isopropylamino)-N-(2-methyl-5-(3-(4-(1-methyl-1H-pyrazol-4-yl)phenyl)pyrrolidine-1-carbonyl)phenyl)nicotinamide]	0.129	101	0.38	0.166	> 10
Cc1ccc(C(=O)N2CCC(c3ccc(-c4cnn(C)c4)cc3)CC2)cc1NC(=O)C(C)C [Compound 156, N-(2-methyl-5-(4-(4-(1-methyl-1H-pyrazol-4-yl)phenyl)piperidine-1-carbonyl)phenyl)isobutyramide]	0.107	100	0.263	0.275	> 10
CCCCC(C)N1CC(C(=O)Nc2cc(C(=O)N3CCC(c4ccc(-c5cnn(C)c5)cc4)CC3)ccc2C)C1 (stereo not shown) [Compound 196, 1-(hexan-2-yl)-N-(2-methyl-5-(4-(4-(1-methyl-1H-pyrazol-4-yl)phenyl)piperidine-1-carbonyl)phenyl)azetidine-3-carboxamide]	0.162	97	0.282	0.407	~6.17
Cc1ccc(C(=O)N2CCC(c3ccc(-c4cnn(C)c4)cc3)CC2)cc1NC(=O)c1cccc(Cl)c1 [Compound 95, 3-chloro-N-(2-methyl-5-(4-(4-(1-methyl-1H-pyrazol-4-yl)phenyl)piperidine-1-carbonyl)phenyl)benzamide]	0.0263	105	0.151	0.263	3.47
Cc1ccc(C(=O)N2CC(c3ccc(-c4ccnn4C)cc3)C2)cc1NC(=O)c1ccc(NC(C)C)nc1 [Compound 25, 6-(isopropylamino)-N-(2-methyl-5-(3-(4-(1-methyl-1H-pyrazol-5-yl)phenyl)azetidine-1-carbonyl)phenyl)nicotinamide]	0.0282	109	0.0457	0.0347	~2.09

— patent US9562035B2, “Benzamide derivative useful as FASN inhibitors for the treatment of cancer” (Janssen Pharmaceutica NV, priority 2013, dated 2017)
